Data published in patent publication US20240360194A1, “New Peptides as Potent and Selective GIP Receptor Agonists” (Sanofi, priority 2021, published 2024).
Numbered stars: 1 amine (or outer) side, 2 acyl side, 3 side chain; on linkers, the order of the positions; unused ones are H or OH. Square brackets hold non-standard residues; d marks the D form. Side chains are listed from the residue outwards. Peptide text beside a SMILES is read from it. * marks the point of attachment. C18 diacid = O=C(O)CCCCCCCCCCCCCCCCC(=O)*; γGlu = O=C(O)[C@H](CCC(=O)[*:2])N[*:1]; dIva = CC[C@@](C)(N)C(=O)O; AEEA = NCCOCCOCC(=O)O; Aib = CC(C)(N)C(=O)O

What was measured:
[1] = target: human GLP-1 receptor (hGLP-1R) (Homo sapiens, UniProt P43220); assay: In vitro cellular cAMP assay for GLP-1 receptor efficacy (HEK-293 cell line over-expressing receptor); assay type: cell-based; details: HEK-293, 0.1% BSA
Chain of human GLP-1 receptor (hGLP-1R) (P43220 24-463): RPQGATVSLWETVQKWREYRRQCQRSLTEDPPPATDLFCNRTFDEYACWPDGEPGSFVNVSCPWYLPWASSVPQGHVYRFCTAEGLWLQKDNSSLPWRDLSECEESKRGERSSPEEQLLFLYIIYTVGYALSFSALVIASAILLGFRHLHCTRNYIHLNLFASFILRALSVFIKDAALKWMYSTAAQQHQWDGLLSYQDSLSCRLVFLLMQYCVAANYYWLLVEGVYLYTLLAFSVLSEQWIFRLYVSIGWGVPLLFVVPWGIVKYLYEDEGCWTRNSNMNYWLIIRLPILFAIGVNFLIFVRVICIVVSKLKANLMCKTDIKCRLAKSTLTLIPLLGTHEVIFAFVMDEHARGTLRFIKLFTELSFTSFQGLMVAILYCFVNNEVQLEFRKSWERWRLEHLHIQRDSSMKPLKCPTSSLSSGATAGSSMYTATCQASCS

human GIP receptor = target: T1, human GIP receptor (Homo sapiens, UniProt P48546); assay: In vitro cellular cAMP assay for GIP receptor efficacy (human adipocytes); assay type: cell-based; details: for EC50: read-out: hGIPR EC50; for Emax: read-out: hGIPR Emax
T1 construct: human adipocytes endogenously expressing the human GIP receptor; host or cells: human preadipocytes (Lonza) differentiated to adipocytes
T1 sequence (P48546 22-466): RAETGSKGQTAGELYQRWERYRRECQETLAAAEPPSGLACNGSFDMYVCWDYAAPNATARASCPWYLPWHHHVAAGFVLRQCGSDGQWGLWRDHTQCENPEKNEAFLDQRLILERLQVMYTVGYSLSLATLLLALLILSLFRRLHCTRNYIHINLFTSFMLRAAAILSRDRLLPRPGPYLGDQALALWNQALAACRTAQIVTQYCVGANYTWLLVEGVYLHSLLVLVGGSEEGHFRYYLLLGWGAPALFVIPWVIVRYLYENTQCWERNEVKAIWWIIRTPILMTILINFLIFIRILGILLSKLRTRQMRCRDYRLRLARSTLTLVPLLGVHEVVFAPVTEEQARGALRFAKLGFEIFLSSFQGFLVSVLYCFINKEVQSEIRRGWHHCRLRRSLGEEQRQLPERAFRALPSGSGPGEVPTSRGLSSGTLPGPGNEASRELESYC
Procedure, shortened: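 cAMP is read by HTRF (665/620 nm ratio, 1 h after reagents in lysis buffer) following 30 min compound exposure at room temperature. Cells are human preadipocyte-derived adipocytes, differentiated 6 days with insulin, dexamethasone, IBMX (200 μM), PPARγ agonist and L-thyroxine, seeded 5000 per well.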

[2] = Pharmacokinetic evaluation in rats; assay type: in vivo; details: male, SD, rat, in vivo
Protocol: Compounds were administered in a suitable buffer system, e.g. PBS buffer solution at pH7.4 or DPBS solution at concentrations of 0.05, 0.1, 0.5 or 1 mg/ml depending on dose, species and administration volume. Male SD rats were dosed 0.25 mg/kg, 0.5 mg/kg or 1 mg/kg intravenously (i.v.) or subcutaneously (s.c.). Blood samples were collected after 0.08, 0.25, 0.5, 1, 2, 4, 8, 24, 32, and 48 h post i.v. application and 0.25, 0.5, 1, 2, 4, 8, 24, 32, and 48 h post s.c. application, respectively. Plasma samples were analysed after protein precipitation via liquid chromatography mass spectrometry (LC/MS). PK parameters and half-life were calculated using Phoenix-WinNonlin 8.1 using a non-compartmental model and linear trapezoidal interpolation calculation. Pharmacokinetic profiles were determined as described in Methods.

| Structure (SMILES) | EC50 [1] [nM] | EC50 (human GIP receptor) [nM] | Emax (human GIP receptor) [%] | AUC(0-t) ([2]; iv, 0.25 mg/kg) [ng·h/mL] | Cmax ([2]; iv, 0.25 mg/kg) [ng/mL] | clearance ([2]; iv, 0.25 mg/kg) [mL/min/kg] | half-life ([2]; iv, 0.25 mg/kg) [h] | AUC(0-t) ([2]; sc, 0.5 mg/kg) [ng·h/mL] | Cmax ([2]; sc, 0.5 mg/kg) [ng/mL] | bioavailability ([2]; sc, 0.5 mg/kg) [%] | half-life ([2]; sc, 0.5 mg/kg) [h] |
| --- | --- | --- | --- | --- | --- | --- | --- | --- | --- | --- | --- |
| CC[C@H](C)[C@H](NC(=O)[C@H](CCCNC(=N)N)NC(=O)[C@H](CC(=O)O)NC(=O)[C@H](CCCCNC(=O)COCCOCCNC(=O)COCCOCCNC(=O)CC[C@H](NC(=O)CCCCCCCCCCCCCCCCC(=O)O)C(=O)O)NC(=O)C(C)(C)NC(=O)[C@@H](NC(=O)[C@H](CO)NC(=O)[C@H](CC(C)C)NC(=O)[C@H](CC(=O)O)NC(=O)[C@H](CO)NC(=O)[C@@H](NC(=O)[C@H](Cc1ccccc1)NC(=O)[C@@H](NC(=O)CNC(=O)[C@H](CCC(=O)O)NC(=O)C(C)(C)NC(=O)[C@@H](N)Cc1ccc(O)cc1)[C@@H](C)O)[C@@H](C)CC)[C@@H](C)CC)C(=O)N[C@@H](Cc1c[nH]cn1)C(=O)N[C@@H](CCC(N)=O)C(=O)NC(C)(C)C(=O)N[C@@H](CCC(=O)O)C(=O)N[C@@H](Cc1ccccc1)C(=O)N[C@H](C(=O)N[C@@H](CCC(=O)O)C(=O)N[C@@H](Cc1c[nH]c2ccccc12)C(=O)N[C@](C)(CC)C(=O)N[C@@H](CC(C)C)C(=O)N[C@@H](C)C(=O)N[C@@H](CCC(N)=O)C(=O)NCC(=O)N1CCC[C@H]1C(=O)N[C@@H](CO)C(=O)N[C@@H](CO)C(=O)NCC(=O)N[C@@H](C)C(=O)N1CCC[C@H]1C(=O)N1CCC[C@H]1C(=O)N1CCC[C@H]1C(=O)N[C@@H](CO)C(N)=O)[C@@H](C)CC [SEQ ID NO: 31, H2N-Y-Aib-E-G-T-F-I-S-D-L-S-I-Aib-K[{AEEA}2-gGlu-C18OH]-D-R-I-H-Q-Aib-E-F-I-E-W-Iva-L-A-Q-G-P-S-S-G-A-P-P-P-S-NH2] (H-Y[Aib]EGTFISDLSI[Aib]K([AEEA-AEEA-γGlu-C18 diacid])DRIHQ[Aib]EFIEW[dIva]LAQGPSSGAPPPS-NH2) | > 10 | 0.7 | 121 |  |  |  |  |  |  |  |  |
| CC[C@H](C)[C@H](NC(=O)[C@H](Cc1ccccc1)NC(=O)[C@H](CCC(=O)O)NC(=O)C(C)(C)NC(=O)[C@H](CCC(N)=O)NC(=O)[C@H](Cc1c[nH]cn1)NC(=O)C(C)(C)NC(=O)[C@H](CCCNC(=N)N)NC(=O)[C@H](CC(=O)O)NC(=O)[C@H](CCCCNC(=O)COCCOCCNC(=O)COCCOCCNC(=O)CC[C@H](NC(=O)CCCCCCCCCCCCCCCCC(=O)O)C(=O)O)NC(=O)C(C)(C)NC(=O)[C@@H](NC(=O)[C@H](CO)NC(=O)[C@H](CC(C)C)NC(=O)[C@H](CC(=O)O)NC(=O)[C@H](CO)NC(=O)[C@@H](NC(=O)[C@H](Cc1ccccc1)NC(=O)[C@@H](NC(=O)CNC(=O)[C@H](CCC(=O)O)NC(=O)C(C)(C)NC(=O)[C@@H](N)Cc1ccc(O)cc1)[C@@H](C)O)[C@@H](C)CC)[C@@H](C)CC)C(=O)N[C@@H](CCC(=O)O)C(=O)N[C@@H](Cc1c[nH]c2ccccc12)C(=O)N[C@@H](CC(C)C)C(=O)N[C@@H](CC(C)C)C(=O)N[C@@H](C)C(=O)N[C@@H](CCC(N)=O)C(=O)N[C@@H](CCCNC(=N)N)C(=O)N1CCC[C@H]1C(=O)N[C@@H](CO)C(=O)N[C@@H](CO)C(=O)NCC(=O)N[C@@H](C)C(=O)N1CCC[C@H]1C(=O)N1CCC[C@H]1C(=O)N1CCC[C@H]1C(=O)N[C@@H](CO)C(N)=O [SEQ ID NO: 22, H2N-Y-Aib-E-G-T-F-I-S-D-L-S-I-Aib-K[{AEEA}2-gGlu-C18OH]-D-R-Aib-H-Q-Aib-E-F-I-E-W-L-L-A-Q-R-P-S-S-G-A-P-P-P-S-NH2] (H-Y[Aib]EGTFISDLSI[Aib]K([AEEA-AEEA-γGlu-C18 diacid])DR[Aib]HQ[Aib]EFIEWLLAQRPSSGAPPPS-NH2) | > 10 | 0.6 | 98 | 40200 | 6030 | 0.0955 | 13.6 | 49900 | 1320 | 69 | 15.5 |
| CC[C@H](C)[C@H](NC(=O)[C@H](CCCNC(=N)N)NC(=O)[C@H](CC(=O)O)NC(=O)[C@H](CC(C)C)NC(=O)C(C)(C)NC(=O)[C@@H](NC(=O)[C@H](CO)NC(=O)[C@H](CC(C)C)NC(=O)[C@H](CC(=O)O)NC(=O)[C@H](CO)NC(=O)[C@@H](NC(=O)[C@H](Cc1ccccc1)NC(=O)[C@@H](NC(=O)CNC(=O)[C@H](CCC(=O)O)NC(=O)C(C)(C)NC(=O)[C@@H](N)Cc1ccc(O)cc1)[C@@H](C)O)[C@@H](C)CC)[C@@H](C)CC)C(=O)N[C@@H](CCCCNC(=O)COCCOCCNC(=O)COCCOCCNC(=O)CC[C@H](NC(=O)CCCCCCCCCCCCCCCCC(=O)O)C(=O)O)C(=O)N[C@@H](CCC(N)=O)C(=O)NC(C)(C)C(=O)N[C@@H](CCC(=O)O)C(=O)N[C@@H](Cc1ccccc1)C(=O)N[C@H](C(=O)N[C@@H](CCC(=O)O)C(=O)N[C@@H](Cc1c[nH]c2ccccc12)C(=O)N[C@@H](CC(C)C)C(=O)N[C@@H](CC(C)C)C(=O)N[C@@H](C)C(=O)N[C@@H](CCC(N)=O)C(=O)NCC(=O)N1CCC[C@H]1C(=O)N[C@@H](CO)C(=O)N[C@@H](CO)C(=O)NCC(=O)N[C@@H](C)C(=O)N1CCC[C@H]1C(=O)N1CCC[C@H]1C(=O)N1CCC[C@H]1C(=O)N[C@@H](CO)C(N)=O)[C@@H](C)CC [SEQ ID NO: 37, H2N-Y-Aib-E-G-T-F-I-S-D-L-S-I-Aib-L-D-R-I-K[{AEEA}2-gGlu-C18OH]-Q-Aib-E-F-I-E-W-L-L-A-Q-G-P-S-S-G-A-P-P-P-S-NH2] (H-Y[Aib]EGTFISDLSI[Aib]LDRIK([AEEA-AEEA-γGlu-C18 diacid])Q[Aib]EFIEWLLAQGPSSGAPPPS-NH2) | > 10 | 0.5 | 113 |  |  |  |  |  |  |  |  |
| CC[C@H](C)[C@H](NC(=O)[C@H](CCCNC(=N)N)NC(=O)[C@H](CCC(=O)O)NC(=O)[C@H](CCCCNC(=O)COCCOCCNC(=O)COCCOCCNC(=O)CC[C@H](NC(=O)CCCCCCCCCCCCCCCCC(=O)O)C(=O)O)NC(=O)C(C)(C)NC(=O)[C@@H](NC(=O)[C@H](CO)NC(=O)[C@H](CC(C)C)NC(=O)[C@H](CC(=O)O)NC(=O)[C@H](CO)NC(=O)[C@@H](NC(=O)[C@H](Cc1ccccc1)NC(=O)[C@@H](NC(=O)CNC(=O)[C@H](CCC(=O)O)NC(=O)C(C)(C)NC(=O)[C@@H](N)Cc1ccc(O)cc1)[C@@H](C)O)[C@@H](C)CC)[C@@H](C)CC)C(=O)N[C@@H](Cc1c[nH]cn1)C(=O)N[C@@H](CCC(N)=O)C(=O)NC(C)(C)C(=O)N[C@@H](CCC(=O)O)C(=O)N[C@@H](Cc1ccccc1)C(=O)N[C@H](C(=O)N[C@@H](CCC(=O)O)C(=O)N[C@@H](Cc1c[nH]c2ccccc12)C(=O)N[C@@H](CC(C)C)C(=O)N[C@@H](CC(C)C)C(=O)N[C@@H](C)C(=O)N[C@@H](CCC(N)=O)C(=O)NCC(=O)N1CCC[C@H]1C(=O)N[C@@H](CO)C(=O)N[C@@H](CO)C(=O)NCC(=O)N[C@@H](C)C(=O)N1CCC[C@H]1C(=O)N1CCC[C@H]1C(=O)N1CCC[C@H]1C(=O)N[C@@H](CO)C(N)=O)[C@@H](C)CC [SEQ ID NO: 21, H2N-Y-Aib-E-G-T-F-I-S-D-L-S-I-Aib-K[{AEEA}2-gGlu-C18OH]-E-R-I-H-Q-Aib-E-F-I-E-W-L-L-A-Q-G-P-S-S-G-A-P-P-P-S-NH2] (H-Y[Aib]EGTFISDLSI[Aib]K([AEEA-AEEA-γGlu-C18 diacid])ERIHQ[Aib]EFIEWLLAQGPSSGAPPPS-NH2) | > 10 |  | 120 | 25800 | 1020 | 0.151 | 12.9 | 33900 | 1020 | 68 | 12.1 |
